pIC50: −log10 of the molar value.
Target: T1, human ENPP1 enzymatic domain (Homo sapiens, UniProt P22413)
T1 construct: recombinant protein containing the human ENPP1 enzymatic domain; purchased Viva Biotech
T1 sequence (P22413 191-591 limits assumed): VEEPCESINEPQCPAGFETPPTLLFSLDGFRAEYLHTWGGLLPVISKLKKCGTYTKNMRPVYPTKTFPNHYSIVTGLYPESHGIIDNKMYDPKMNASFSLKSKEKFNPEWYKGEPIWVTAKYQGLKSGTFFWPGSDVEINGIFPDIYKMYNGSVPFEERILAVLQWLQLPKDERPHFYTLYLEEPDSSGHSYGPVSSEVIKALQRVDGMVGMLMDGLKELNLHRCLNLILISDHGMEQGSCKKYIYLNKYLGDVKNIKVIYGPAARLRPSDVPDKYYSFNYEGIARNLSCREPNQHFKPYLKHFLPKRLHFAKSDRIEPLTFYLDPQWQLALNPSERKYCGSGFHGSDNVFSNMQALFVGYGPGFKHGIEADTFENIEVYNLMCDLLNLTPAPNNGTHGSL
Assay: ENPP1 Enzymatic Inhibition Assay (2′3′-cGAMP substrate, AMP-Glo luminescence)
Type: biochemical
Conditions: 1 nM ENPP1, 20 uM 2′3′-cGAMP, 30 minutes at 37° C.
Method: The inhibition of ENPP1's phosphodiesterase activity were tested in a purified enzymatic assay using 2′3′-cyclic GAMP as a substrate which allowed for the release of cleaved AMP to be monitored using a luminescent assay.
Putative inhibitors were diluted in assay buffer (50 mM Tris pH 8.0, 250 mM NaCl, 0.5 mM CaCl2), 1 uM ZnCl2, 1% DMSO) and pre-incubated for 15 minutes at 37° C. with recombinant protein containing the human ENPP1 enzymatic domain (Viva Biotech). The enzymatic reaction was initiated upon addition of the 2′3′-cGAMP substrate. The final reaction concentrations were 1 nM ENPP1 and 20 uM 2′3′-cGAMP substrate in a 25 uL volume. Inhibitor concentrations ranged from 10 uM to 0.056 nM. The reaction was incubated for 30 minutes at 37° C.
After reacting for 30 minutes, the amount of AMP generated from the cleavage of 2′3′-cGAMP was determined using the Promega AMP-Glo method according to the manufacturer's protocol. First, AMP-Glo reagent 1 was added and incubated with the reaction mix for 1 hour at room temperature. Second, AMP Detection solution was added and the mixture was incubated for an additional hour. The luminescence of the mixture was read on a Perkin Elmer Ensight plate reader.
The maximum and minimum levels of ENPP1 activity were established using no inhibitor and no enzyme controls, respectively. The activity observed using ENPP1 inhibitors was quantified as the percent of activity relative to these controls. IC50 values were calculated using CDD Vault by fitting a sigmoidal variable slope nonlinear regression model to the data.

pIC50 | Structure (SMILES)
> 8.00 | COc1ccc2c(Oc3ccc([S@@](=N)(=O)NC[C@@H](O)CO)cc3)ccnc2c1 [Compound 32, (S)-N-((R)-2,3-dihydroxypropyl)-4-((7-methoxyquinolin-4-yl)oxy)benzenesulfonimidamide]
> 8.00 | COc1ccc2c(Oc3ccc([S@@](=N)(=O)N[C@@H](C)CO)cc3)ccnc2c1 [Compound 6, (S)-N-((S)-1-hydroxypropan-2-yl)-4-((7-methoxyquinolin-4-yl)oxy)benzenesulfonimidamide]
> 8.00 | N=[S@](=O)(NCC1CC1)c1ccc(Nc2ccnc3cc(OC(F)F)ccc23)cc1 [Compound 22, (S)-N-(cyclopropylmethyl)-4-((7-(difluoromethoxy)quinolin-4-yl)amino)benzenesulfonimidamide]
> 8.00 | COc1cc2nccc(Nc3ccc([S@@](=N)(=O)NC[C@@H](C)O)cc3)c2cc1F [Compound 68, (S)-4-((6-fluoro-7-methoxyquinolin-4-yl)amino)-N-((R)-2-hydroxypropyl)benzenesulfonimidamide]
> 8.00 | COc1ccc2c(Oc3ccc([S@@](=N)(=O)NCC4CC4)cc3)ccnc2c1 [Compound 14, (S)-N-(cyclopropylmethyl)-4-((7-methoxyquinolin-4-yl)oxy)benzenesulfonimidamide]
> 8.00 | COc1ccc2c(Nc3ccc([S@@](=N)(=O)NC[C@H](C)O)cc3F)ccnc2c1 [Compound 46, (S)-3-fluoro-N-((S)-2-hydroxypropyl)-4-((7-methoxyquinolin-4-yl)amino)benzenesulfonimidamide]
> 8.00 | COc1ccc2c(Oc3ccc([S@](=N)(=O)NC(C)c4ccn(C)n4)cc3)ccnc2c1 (stereo partly drawn) [Compound 29, (R)-4-((7-methoxyquinolin-4-yl)oxy)-N-(1-(1-methyl-1H-pyrazol-3-yl)ethyl)benzenesulfonimidamide]
> 8.00 | COc1ccc2c(Nc3ccc([S@](=N)(=O)N[C@@H](C)CO)cc3)ccnc2c1 [Compound 39, (R)-N-((S)-1-hydroxypropan-2-yl)-4-((7-methoxyquinolin-4-yl)amino)benzenesulfonimidamide]
> 8.00 | COc1ccc2c(Nc3ccc([S@](=N)(=O)NC[C@H](C)O)cc3)ccnc2c1 [Compound 37, (R)-N-((S)-2-hydroxypropyl)-4-((7-methoxyquinolin-4-yl)amino)benzenesulfonimidamide]
> 8.00 | COc1ccc2c(Nc3ccc([S@@](=N)(=O)N[C@@H](C)c4ccnn4C)cc3)ccnc2c1 [Compound 42, (S)-4-((7-methoxyquinolin-4-yl)amino)-N-((S)-1-(1-methyl-1 H-pyrazol-5-yl)ethyl)benzenesulfonimidamide]
7.00 to 8.00 | COc1cc2nccc(Nc3ccc([S@](=N)(=O)NC[C@@H](C)O)cc3)c2cc1OC [Compound 51, (R)-4-((6,7-dimethoxyquinolin-4-yl)amino)-N-((R)-2-hydroxypropyl)benzenesulfonimidamide]
> 8.00 | COc1cc2nccc(Nc3ccc([S@@](=N)(=O)NC[C@@H](C)O)cc3)c2cc1OC [Compound 52, (S)-4-((6,7-dimethoxyquinolin-4-yl)amino)-N-((R)-2-hydroxypropyl)benzenesulfonimidamide]
> 8.00 | COc1ccc2c(Oc3ccc([S@@](=N)(=O)N[C@H](C)CO)cc3)ccnc2c1 [Compound 12, (S)-N-((R)-1-hydroxypropan-2-yl)-4-((7-methoxyquinolin-4-yl)oxy)benzenesulfonimidamide]
> 8.00 | COc1ccc2c(Oc3ccc([S@@](=N)(=O)NCC(C)(C)O)cc3)ccnc2c1 [Compound 10, (S)-N-(2-hydroxy-2-methylpropyl)-4-((7-methoxyquinolin-4-yl)oxy)benzenesulfonimidamide]
7.00 to 8.00 | COc1cccc2c(Nc3ccc([S@@](=N)(=O)NC[C@@H](C)O)cc3)ncnc12 [Compound 62, (S)-N-((R)-2-hydroxypropyl)-4-((8-methoxyquinazolin-4-yl)amino)benzenesulfonimidamide]
> 8.00 | COc1ccc2c(Nc3ccc([S@@](=N)(=O)NC[C@H](C)O)cc3)ccnc2c1 [Compound 38, (S)-N-((S)-2-hydroxypropyl)-4-((7-methoxyquinolin-4-yl)amino)benzenesulfonimidamide]
7.00 to 8.00 | COc1ccc2c(Oc3ccc([S@](=N)(=O)NCC(C)(C)O)cc3)ccnc2c1 [Compound 9, (R)-N-(2-hydroxy-2-methylpropyl)-4-((7-methoxyquinolin-4-yl)oxy)benzenesulfonimidamide]
> 8.00 | COc1ccc2c(Nc3ccc([S@@](=N)(=O)N[C@H](C)CO)cc3)ccnc2c1 [Compound 36, (S)-N-((R)-1-hydroxypropan-2-yl)-4-((7-methoxyquinolin-4-yl)amino)benzenesulfonimidamide]
< 7.00 | COc1cccc2c(Nc3ccc([S@](=N)(=O)NCCO)cc3)ccnc12 [Compound 57, (R)-N-(2-hydroxyethyl)-4-((8-methoxyquinolin-4-yl)amino)benzenesulfonimidamide]
> 8.00 | CN[S@](=N)(=O)c1ccc(Oc2ccnc3cc(OC)ccc23)cc1 [Compound 2, (S)-4-((7-methoxyquinolin-4-yl)oxy)-N-methylbenzenesulfonimidamide]
> 8.00 | COc1ccc2c(Nc3ccc([S@](=N)(=O)NCCCn4cnnc4)cc3)ccnc2c1 [Compound 49, (R)-N-(3-(4H-1,2,4-triazol-4-yl)propyl)-4-((7-methoxyquinolin-4-yl)amino)benzenesulfonimidamide]
> 8.00 | COc1ccc2c(Nc3ccc([S@](=N)(=O)NC[C@H](C)O)c(F)c3)ccnc2c1 [Compound 47, (R)-2-fluoro-N-((S)-2-hydroxypropyl)-4-((7-methoxyquinolin-4-yl)amino)benzenesulfonimidamide]
> 8.00 | COc1ccc2c(Nc3ccc([S@@](=N)(=O)NC[C@@H](C)OC(C)=O)cc3)ccnc2c1 [Compound 69, (R)-1-(((S)-4-((7-methoxyquinolin-4-yl)amino)phenyl)sulfonoamidimidamido)propan-2-yl acetate]
7.00 to 8.00 | COc1ccc2c(Oc3ccc([S@](=N)(=O)N[C@H](C)CO)cc3)ccnc2c1 [Compound 11, (R)-N-((R)-1-hydroxypropan-2-yl)-4-((7-methoxyquinolin-4-yl)oxy)benzenesulfonimidamide]
> 8.00 | COc1ccc2c(Nc3ccc([S@@](=N)(=O)NCCO)cc3)ccnc2c1 [Compound 54, (S)-N-(2-hydroxyethyl)-4-((7-methoxyquinolin-4-yl)amino)benzenesulfonimidamide]
> 8.00 | COc1ccc2c(Oc3ccc([S@@](=N)(=O)NCCO)cc3)ccnc2c1 [Compound 4, (S)-N-(2-hydroxyethyl)-4-((7-methoxyquinolin-4-yl)oxy)benzenesulfonimidamide]
7.00 to 8.00 | COc1ccc2c(Nc3ccc([S@@](=N)(=O)NCC4CC4)cc3)c(C#N)cnc2c1 [Compound 21, (S)-4-((3-cyano-7-methoxyquinolin-4-yl)amino)-N-(cyclopropylmethyl)benzenesulfonimidamide]
> 8.00 | COc1ccc2c(Nc3ccc([S@@](=N)(=O)NC[C@H](C)O)c(F)c3)ccnc2c1 [Compound 48, (S)-2-fluoro-N-((S)-2-hydroxypropyl)-4-((7-methoxyquinolin-4-yl)amino)benzenesulfonimidamide]
7.00 to 8.00 | CN[S@@](=N)(=O)c1ccc(Nc2ncnc3cc(OC)ccc23)cc1 [Compound 15, (R)-4-((7-methoxyquinazolin-4-yl)amino)-N-methylbenzenesulfonimidamide]

Source: US20240382474A1, “ENPP1 MODULATORS AND USES THEREOF” (Vir Biotechnology, Inc., priority 2021, published 2024)
